Patent US20080261862A1, “Materials and Methods for Modulating Signalling by Alpha-V Integring Molecules” (priority 2004, published 2008)
Entries after “also recorded” stand apart in the source; their conditions may differ.

What was measured:
[1] = system: SMS-SB cells; assay: Proliferation ([3H]-thymidine incorporation) of low cell density SMS-SB cultures; assay type: cell-based, human; conditions: 72 hr; for growth / thymidine incorporation of SMS-SB cells: LCD cultures, 2500 cells/well
Protocol: For stimulation experiments, SMS-SB cells were cultured at 2500 cells/100 μl culture (low cell density, LCD) a seeding density at which the cells are prone to apoptose^15. NALM-6 cells were washed extensively in PFHM prior to culture at 2, 500 cells/100 μl culture. Cultures were propagated, in the presence or absence of cytokines, MAbs or peptides, at 37° C. for 72 hours followed by addition of 0.3 μCi/well tritiated thymidine ([^3H]-TdR) for 18 hours prior to harvest; incorporation was determined by liquid scintillation spectrometry. Apoptosis was determined by staining harvested cells with propidium iodide (PI) and Hoechst 33342 for 1 minute prior to analysis on a Coulter Elite flow cytometer as previously described^15. For stromal cell/SMS-SB co-cultures, 6000 stromal cells were seeded into individual wells of a 96-well tray and allowed to adhere for 24 hr; anti-CD23 MAb or isotype matched control and SMS-SB cells were added to the wells to give a total culture volume of 100 μl. SMS-SB cells were added at 5, 25 or 50 cells per well and cultures were allowed to expand over a 2-4 week period.

[2] = system: SMS-SB cells; assay: Flow cytometry binding of biotinylated peptides to SMS-SB cells; assay type: cell-based, human
Source text: FIG. 3C:—Binding of biotinylated peptides to pre-B cell lines was detected by addition of PE-streptavidin and flow cytometry; mean fluorescence index (MFI) data were derived using CellQuest software. The flow cytometric plots for binding of peptides #9 (black line), #11 (grey line) and #57 (shaded area) are illustrated (Panel i), and MFI data for binding of the noted peptides to SMS-SB (Panel ii), Blin-1 (Panel iii) and Nalm-6 (Panel iv) are shown. The unique nine amino acid sequence of each biotinylated tridecapeptide is shown with the RKC motif shared by αvβ5 binding peptides shown in bold (Panel ii).
Binding of peptides to cells was visualised by treating cells exposed to biotinylated peptides with fluorochrome-conjugated streptavidin and scoring binding by flow cytometry; mean fluorescence intensity data were obtained using the CellQuest programme. In culture experiments, peptides were used in the 10 nM to […] concentration range and appropriate solvent vehicle controls (e.g., acetonitrile, DMSO) were always performed.

| Molecule | growth / thymidine incorporation of SMS-SB cells [1] | binding of biotinylated peptide to SMS-SB cells ([2]; flow cytometry, MFI) | effect of RGDS on SMS-SB growth / thymidine incorporation induced by peptides #9 and #12 ([1]; 10 μg/ml RGDS) | effect of excess RGDS on peptide binding to SMS-SB cells ([2]; ten-fold excess / 10 μg/ml RGDS) |
| --- | --- | --- | --- | --- |
| CKRQFNIWK [9-INV] | reduces substantially, but does not ablate, its ability to elevate thymidine incorporation | does not reduce greatly binding | – | – |
| RGDS | – | – | nor inhibits thymidine incorporation induced by peptides #9 and #12; also recorded: fails to block | neither impedes peptide binding to SMS-SB cells; also recorded: fails to block binding of peptide #9 to SMS-SB cells |
| fibronectin [Fn] | neither Vn nor Fn sustain the growth of SMS-SB cells | – | – | – |
| vitronectin (protein, UniProt P04004 20-478, looked up, extracellular matrix protein, RGD-containing αv ligand) Vitronectin: DQESCKGRCTEGFNVDKKCQCDELCSYYQSCCTDYTAECKPQVTRGDVFTMPEDEYTVYDDGEEKNNATVHEQVGGPSLTSDLQAQSKGNPEQTPVLKPEEEAPAPEVGASKPEGIDSRPETLHPGRPQPPAEEELCSGKPFDAFTDLKNGSLFAFRGQYCYELDEKAVRPGYPKLIRDVWGIEGPIDAAFTRINCQGKTYLFKGSQYWRFEDGVLDPDYPRNISDGFDGIPDNVDAALALPAHSYSGRERVYFFKGKQYWEYQFQHQPSQEECEGSSLSAVFEHFAMMQRDSWEDIFELLFWGRTSAGTRQPQFISRDWHGVPGQVDAAMAGRIYISGMAPRPSLAKKQRFRHRNRKGYRSQRGHSRGRNQNSRRPSRATWLSLFSSEESNLGANNYDDYRMDWLVPATCEPIQSVFFFSGDKYYRVNLRTRRVDTVDPPYPRSIAQYWLGCPAPGHL | neither Vn nor Fn sustain the growth of SMS-SB cells | – | – | – |
